{"source": "patent US7119082B2", "about": "“11β-long-chain-substituted 19-nor-17α-pregna-1,3,5(10)-trien-17β-ols with a 21,16α-lactone ring” (priority 2002, dated 2006)", "key": {"[1]": {"test_system": "hER β", "details": "Table 2; cited from Kuiper et al. (1996), Endocrinology 138: 863-870; cited from earlier work"}, "[2]": {"test_system": "estrogen receptor from the rat uterus", "assay": "Estrogen receptor binding, rat uterus cytosol, competition with 3H-estradiol"}, "[3]": {"target": "T1, estrogen receptor from the rat uterus (Rattus norvegicus, UniProt P06211)", "T1 construct": "The preparation of rat uterus cytosol as well as the receptor test with the estrogen-receptor-containing cytosol; from tissue; host or cells: rat uterus cytosol", "T1 sequence (P06211 1-600)": "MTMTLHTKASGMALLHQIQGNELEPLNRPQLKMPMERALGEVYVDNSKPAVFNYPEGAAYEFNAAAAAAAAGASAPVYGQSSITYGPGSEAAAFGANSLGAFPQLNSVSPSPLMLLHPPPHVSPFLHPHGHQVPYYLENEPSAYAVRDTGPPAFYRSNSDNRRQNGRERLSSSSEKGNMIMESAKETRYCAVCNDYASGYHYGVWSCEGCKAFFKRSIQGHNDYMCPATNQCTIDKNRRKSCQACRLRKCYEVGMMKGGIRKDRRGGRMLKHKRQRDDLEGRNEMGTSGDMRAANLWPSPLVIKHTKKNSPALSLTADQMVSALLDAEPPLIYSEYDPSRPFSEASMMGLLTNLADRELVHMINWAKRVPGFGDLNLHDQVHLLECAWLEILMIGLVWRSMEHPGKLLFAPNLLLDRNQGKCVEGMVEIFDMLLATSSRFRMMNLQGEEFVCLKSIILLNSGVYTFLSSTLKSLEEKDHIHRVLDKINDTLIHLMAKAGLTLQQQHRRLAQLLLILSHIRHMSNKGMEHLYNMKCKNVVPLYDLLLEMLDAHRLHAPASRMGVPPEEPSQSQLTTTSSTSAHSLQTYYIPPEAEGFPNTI", "assay": "Estrogen receptor binding, rat uterus cytosol, competition with 3H-estradiol"}, "[4]": {"test_system": "estrogen receptor from the rat prostate", "assay": "Estrogen receptor binding, rat prostate cytosol, competition with 3H-estradiol", "details": "for Rat Prostate ER (RBA): Table 1, 3H-estradiol as ligand"}, "[5]": {"test_system": "hER β", "assay": "Relative binding affinity to hER β (cited from Kuiper et al.)", "design": "species or system human", "details": "Table 2; quotient of the cited RBA values", "description": "In this case, it is assumed that ERβ predominates in the rat prostate over ERα, and ERα predominates in the rat uterus over ERβ."}, "[6]": {"test_system": "MCF-7 breast cancer cells", "assay": "Cell proliferation assay, estradiol-stimulated MCF-7, crystal violet", "format": "cell-based", "details": "Homo sapiens, MCF7, 168 h; concentration 10^-5 M; 7 days; FIG. 1"}, "[7]": {"details": "relative binding affinity, estradiol = 100"}}, "note": "Like-named read-outs stand apart in the source and are kept apart here.", "data": [{"compound": "C[C@]12CC[C@@H]3c4ccc(O)cc4CC[C@H]3[C@@H]1C[C@@H](O)[C@@H]2O", "note": "[Estriol]", "values": [{"measurement": "hER β RBA", "setting": "[1]", "result": 21}]}, {"compound": "C[C@]12CC[C@H](O)CC1=CCC1C2CC[C@@]2(C)C1CC[C@@H]2O", "note": "(stereo partly shown) [5-Andros-ten-diol]", "values": [{"measurement": "hER β RBA", "setting": "[1]", "result": 17}, {"measurement": "Uterus-ER/Prostata-ER", "setting": "[2]; Table 2, ratio of rat ER RBA values as headed", "result": 50}, {"measurement": "Rat uterus ER(RBA)", "setting": "[3]", "result": 0.1}, {"measurement": "Rat prost. ER(RBA)", "setting": "[4]", "result": 5}, {"measurement": "ERβ/ERα", "setting": "[5]", "result": 3}]}, {"compound": "C[C@]12CCC3c4ccc(O)cc4CCC3C1CC[C@@H]2O", "note": "(stereo partly shown) [Estradiol]", "values": [{"measurement": "Rat Prostate ER (RBA)", "setting": "[4]; [7]", "result": 100}, {"measurement": "Rat prost. ER(RBA)", "setting": "[4]; Table 2, relative binding affinity, estradiol = 100", "result": 100}]}, {"compound": "CCCCCC[C@H]1C[C@@]2(C)C(C[C@H]3OC(=O)C[C@]32O)C2CCc3cc(O)ccc3C21", "note": "(stereo partly drawn) [Compound 1, 3,17β-Dihydroxy-11β-hexyl-19-nor-17α-pregna-1,3,5(10)-triene-21,16α-lactone]", "values": [{"measurement": "inhibition at 10 µM", "setting": "[6]", "result": 100, "unit": "%"}, {"measurement": "Uterus-ER/Prostate-ER", "setting": "[2]; Table 1, ratio of RBA rat uterus ER to rat prostate ER", "result": 22}, {"measurement": "Binding affinity, rat uterus ER compared with rat prostate ER (in words)", "setting": "[2]; see Table 1", "result": "higher binding affinity to the estrogen receptor from the rat uterus than to the estrogen receptor from the rat prostate"}, {"measurement": "Rat uterus ER(RBA)", "setting": "[3]; Table 1, relative binding affinity, estradiol = 100, 3H-estradiol as ligand", "result": 26.2}, {"measurement": "Rat Prostate ER (RBA)", "setting": "[4]; [7]", "result": 1.2}]}]}
